# Where two headings read alike, the source gives them in different places. *1 amine or outer side, *2 acyl side, *3 side chain or, on linkers, in order; H or OH if unused. Bridges are numbered along the chain shown (N, C = ends). Where no end group is shown, it is not given here. [ ]: non-standard residue; d: D form. (miniPEG)2 = linker of two miniPEG units, each HN-CH2CH2-O-CH2CH2-O-CH2-C(=O), O=C(COCCOCCN[*:1])NCCOCCOCC(=O)[*:2]
# B1: synthetic peptide comprising SEQ ID NO: 10 (peptide)
# peptide: STCLIDMYGVCHSSCLIDMYGVCH
# modifications: cysteine pairing not given here; also: biotinylated, site not given here
# B2: peptide composition SEQ ID NO: 131 (peptide)
# peptide: SSCLIDIYGVCHNFDAY[(miniPEG)2]SSHRTNHKKNNPKKKNKTRGSSGK
# modifications: disulfide 3-11 (inferred)
# B3: synthetic peptide comprising SEQ ID NO: 9 (peptide)
# peptide: STCLIDMYGVCH
# modifications: cysteine pairing not given here; also: biotinylated, site not given here
# B4: synthetic peptide comprising SEQ ID NO: 1 (peptide)
# peptide: CLIDMYGVCHNFDGAYDS
# modifications: cysteine pairing not given here; also: biotinylated, site not given here
# B5: peptide composition SEQ ID NO: 130 (peptide)
# peptide: SSCLIDIYGVCHNFDAY[(miniPEG)2]HKKNNPKKKNKTRGSSK
# modifications: disulfide 3-11 (inferred)
# B6: synthetic peptide comprising SEQ ID NO: 3 (peptide)
# peptide: PCELIDMFGNDHCP
# modifications: cysteine pairing not given here; also: biotinylated, site not given here
# B7: synthetic peptide comprising SEQ ID NO: 2 (peptide)
# peptide: CLFDIFGVCHSFDGAYDS
# modifications: cysteine pairing not given here; also: biotinylated, site not given here
# B8: synthetic peptide comprising SEQ ID NO: 4 (peptide)
# peptide: SCDMLFCENFSGSGNNWFS
# modifications: cysteine pairing not given here; also: biotinylated, site not given here
# B9: synthetic peptide comprising SEQ ID NO: 5 (peptide)
# peptide: SLIDMYGVCHNFDGAYDS
# modifications: also: biotinylated, site not given here
# Tests used:
# S. aureus = assay: bacterial growth with loaded titanium beads, optical density at 600 nm; format: cell-based; settings: peptide 10 μM + vancomycin 200 μM, 37° C. for 18 hours
# Method: In another experiment, antimicrobial activity of the peptide compositions was measured as follows. Titanium beads were placed into wells of a 96 well plate. To each well was added a 10 μM of peptide composition comprising at least one surface-binding peptide coupled to at least one glycopeptide antibiotic binding peptide and vancomycin at 200 μM. The appropriate negative controls were also included. The plate was incubated for 1 hour at 20° C., and then the wells and beads were washed 4 times with buffer. After washing, the beads were transferred to the well of a plate containing S. aureus in log phase growth and incubated at 37° C. for 18 hours. Bacterial growth was assessed by reading optical density at 600 nm.
# [1] = binding assay: biotinylated synthetic peptide on streptavidin plate, titrated with biotinylated glycopeptide antibiotic
# Method: A typical binding assay for glycopeptide antibiotic was performed according to the following procedure. Briefly, synthetic peptides comprising an amino acid sequence to be characterized for binding were biotinylated to facilitate immobilization on streptavidin-coated 96-well plates. The microtiter plates were coated with streptavidin by adding 50 μl of a 10 μg/ml streptavidin solution in 0.1M NaHCO3, and incubating the plates for at least 3 hours. The plate wells were blocked by adding 150 μl of a 1% BSA solution in 0.1 NaHCO3 with incubation for at least 2 hours, and the plates were stored at 4° C. until needed. Before use, the streptavidin plates were washed extensively in buffer-T. Added per well was peptide (100 μl 0.1 μM peptide in buffer-T), and then incubated for 30 minutes at room temperature with shaking. 200 μl of 0.5 mM biotin in buffer-T was added to block the remaining streptavidin sites, and plates were incubated for 15 minutes at room temperature. Plates were then washed with buffer-T to remove the excess biotin and peptide. Serial dilutions of biotinylated glycopeptide antibiotic in buffer-T were added (100 μl) to each well, representing a range of concentrations between 100 pM and 100 μM. Plates were incubated for 30 minutes at room temperature with shaking prior to washing several times with buffer-T. Glycopeptide antibiotic was then detected by adding 100 μl of a diluted streptavidin-alkaline phosphatase conjugate to each well and incubated at room temperature for 30 minutes. Excess conjugate was removed by repeated washes with buffer-T, and the amount of alkaline phosphatase remaining in the well was detected using a pNPP (para-nitrophenylphosphate) colorimetric enzymatic assay. The relative amount of glycopeptide antibiotic captured by the peptides was determined by measuring the absorbance at 405 nm of the colored product of the alkaline phosphatase reaction. The EC50 was determined for each peptide relative to the binding affinity for the glycopeptide antibiotic used in the assay, as shown in Table 1 (with vancomycin as a representative glycopeptide antibiotic).
# (§1) A typical binding assay for glycopeptide antibiotic was performed according to the following procedure. The concentrations of the alkaline-phosphatase linked variant peptides were normalized to equal levels based on the alkaline-phosphatase activity as determined in a kinetic assay with the alkaline-phosphatase specific chromogenic substrate p-nitrophenyl phosphate (p-NPP). A streptavidin coated microtiter plate was coated with biotinylated vancomycin. Serial dilutions of normalized alkaline-phosphatase linked peptides were allowed to bind to the immobilized vancomycin and detected by addition of the alkaline-phosphatase specific chromogenic substrate p-NPP. Relative affinity for peptide binding to the immobilized vancomycin was determined by measuring the absorbance at 405 nm of the colored product of the alkaline phosphatase reaction. […] EC50 values for the synthetic peptides binding to vancomycin were determined as described in Example 1 and are shown in Table 3. Preferred are peptides that bind to glycopeptide antibiotic with binding affinity of EC50 of less than or equal to about 1 μM, and more preferably, in the nanomolar range (e.g., <0.1 μM).
# [2] = binding of serially diluted alkaline-phosphatase linked peptides to immobilized biotinylated vancomycin; settings: absorbance at 405 nm
# Description: From the peptide amino acid sequence […] (SEQ ID NO: 1) additional peptides were designed and expressed in the bacterial expression system described herein to further evaluate structure-function relationships. A truncated peptide comprising the amino acid sequence of SEQ ID NO:9 (STCLIDMYGVCH) was expressed and compared to a peptide comprising SEQ ID NO:1 for binding affinity for glycopeptide antibiotic. Also produced were a dimer of this truncated peptide (SEQ ID NO:10; […]), a D to A substitution (SEQ ID NO:11; STCLIAMYGVCH), a D to E substitution (SEQ ID NO:12; STCLIEMYGVCH), and a G to S substitution (SEQ ID NO:13; STCLIDMYSVCH). Relative binding strengths of these peptides and of other representative peptides to glycopeptide antibiotic were determined by EC50 values for binding to vancomycin or other glycopeptide antibiotic.
# as §1
# vancomycin [3] = assay: plate assay as in Example 1: synthetic peptide on streptavidin, biotinylated vancomycin titrated
# vancomycin [4] = assay: titanium beads with 10 µM peptide composition and 200 µM vancomycin, washed, vancomycin eluted with HCl and measured by HPLC
# vancomycin [5] = assay: plate assay: biotinylated peptide on streptavidin, biotinylated vancomycin titrated, streptavidin-AP detection
# [6] = synthetic peptides, biotinylated vancomycin, read-out: EC50 (μM) for vancomycin binding
# [7] = synthetic peptides binding to vancomycin, read-out: EC50, binding to glycopeptide antibiotic
molecule,measurement,setting,value
131 (SSCLIDIYGVCHNFDAY[(miniPEG)2]SSHRTNHKKNNPKKKNKTRGSSGK; disulfide 3-11 (inferred)) [compound 131],inhibition of bacterial growth (optical density at 600 nm),S. aureus,complete inhibition
SLIDMYGVCHNFDGAYDS [compound 5],EC50,[1]; [6],10 µM
13 (STCLIDMYSVCH) [compound 13],glycopeptide antibiotic binding of alkaline-phosphatase linked peptides,[2],no detectable glycopeptide antibiotic binding
CLFDIFGVCHSFDGAYDS [compound 2],EC50,[1]; [7],< 0.1 µM
same,EC50,[1]; [6],0.06 µM
STCLIDMYGVCH [compound 9],glycopeptide antibiotic binding of alkaline-phosphatase linked peptides,[2],displayed glycopeptide antibiotic binding
same,EC50,[1]; [7],< 1 µM
PCELIDMFGNDHCP [compound 3],EC50,[1]; [7],< 0.1 µM
same,EC50,[1]; [6],0.82 µM
STCLIDMYGVCHSSCLIDMYGVCH [compound 10],glycopeptide antibiotic binding of alkaline-phosphatase linked peptides,[2],displayed glycopeptide antibiotic binding
same,EC50,[1]; [7],< 1 µM
SCDMLFCENFSGSGNNWFS [compound 4],EC50,[1]; [6],10 µM
120 (H-SSSCLIDMYGVCHNFDGAYDSSRG[(miniPEG)2]SSHRTNHKKNNPKKKNKTRGSSGK-NH2; disulfide 4-12) [compound 120],inhibition of bacterial growth (optical density at 600 nm),S. aureus,complete inhibition
130 (SSCLIDIYGVCHNFDAY[(miniPEG)2]HKKNNPKKKNKTRGSSK; disulfide 3-11 (inferred)) [compound 130],inhibition of bacterial growth (optical density at 600 nm),S. aureus,complete inhibition
11 (STCLIAMYGVCH) [compound 11],glycopeptide antibiotic binding of alkaline-phosphatase linked peptides,[2],no detectable glycopeptide antibiotic binding
12 (STCLIEMYGVCH) [compound 12],glycopeptide antibiotic binding of alkaline-phosphatase linked peptides,[2],no detectable glycopeptide antibiotic binding
B1,EC50,vancomycin [3],< 1000 nM
B2,Picomoles vancomycin/cm^2 (picomoles/cm^2),vancomycin [4],76
B3,EC50,vancomycin [3],< 1000 nM
B4,EC50,vancomycin [3],< 100 nM
same,EC50,vancomycin [5],100 nM
B5,Picomoles vancomycin/cm^2 (picomoles/cm^2),vancomycin [4],83
B6,EC50,vancomycin [3],< 100 nM
same,EC50,vancomycin [5],820 nM
B7,EC50,vancomycin [3],< 100 nM
same,EC50,vancomycin [5],60 nM
B8,EC50,vancomycin [5],10000 nM
B9,EC50,vancomycin [5],10000 nM
